Earlier results in patent US20070208041A1, “Compositions for the treatment and prevention of heart disease and methods of using same” (priority 2005, published 2007).

What was measured:
[1] = test system: phenylephrine-constricted rat aorta
[2] = allopurinol alone

| Structure (SMILES) | effect of ALDH-2 inhibitor benomyl on vasodilator response [1] | outcome of clinical trials [2] |
| --- | --- | --- |
| O=[N+]([O-])O[C@@H]1CO[C@H]2[C@@H]1OC[C@@H]2O [isosorbide-5-mononitrate, 1,4:3,6-dianhydrosorbitol 5-mononitrate] | not affected | – |
| O=[N+]([O-])OCC(CO[N+](=O)[O-])O[N+](=O)[O-] [GTN] | reduced the vasodilator potency, but not the efficacy | – |
| O=[N+]([O-])O[C@H]1CO[C@H]2[C@@H]1OC[C@H]2O[N+](=O)[O-] [isosorbide dinitrate, 1,4:3,6-dianhydrosorbitol 2,5-dinitrate] | not affected | – |
| O=[N+]([O-])OCC(CO)(CO)CO [pentaerythritol mononitrate] | not affected | – |
| Oc1ncnc2[nH]ncc12 [allopurinol] | – | not successful |
